Results reported in patent publication US20250197372A1 (priority 2020, published 2025).

Key:
Format in all cases: biochemical
[1] = biological target: recombinant human GAA (acid alpha-glucosidase) (Homo sapiens, UniProt P10253); test: Acid alpha-glucosidase (GAA) assay (4-methylumbelliferyl-alpha-D-pyranoside substrate, fluorescence)
Method in brief: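 Recombinant human enzyme preincubated 60 min at 37 °C with compound dilutions, then 4-methylumbelliferyl-alpha-D-pyranoside substrate added for 20 min at 37 °C. Stopped with glycine/NaOH pH 10; methylumbelliferone fluorescence (ex 365, em 440 nm) versus untreated enzyme; IC50 by 4-PL fit.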

[2] = biological target: rat sucrase (partially purified alpha-glucosidase from intestinal rat powder) (Rattus norvegicus, UniProt P23739); test: Intestinal alpha-glucosidase assay, sucrose substrate (Glucose GO Kit)
Method in brief: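 Enzyme from intestinal rat powder, partially purified, is exposed to compound for 60 min at 37 °C. Disaccharide substrate (maltose or sucrose respectively) then reacts 30 min at 37 °C. Heat-stopped samples are assayed for glucose, and percent inhibition versus concentration gives IC50 via 4-PL.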

[3] = biological target: T1, recombinant alpha-glucosidase II (murine full-length glucosidase II, alpha and beta subunits, Glu 2) (Mus musculus, UniProt Q8BHN3); test: Alpha-glucosidase II assay (4-methylumbelliferyl-alpha-D-pyranoside substrate, fluorescence); settings: Glucosidase 2; read-out: Glu2 IC50
T1 construct: made in house; host or cells: HEK-293T cells transduced with BacMam viruses (75% alpha, 25% beta); protein harvested from culture supernatant

[4] = biological target: rat maltase (partially purified alpha-glucosidase from intestinal rat powder); test: Intestinal alpha-glucosidase assay, maltose substrate (Glucose GO Kit)
Method in brief: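 Rat intestinal enzyme prep + test cpd dilutions, 60 min 37 °C; add maltose (maltase) or sucrose (sucrase), 30 min 37 °C; stop 90 °C 5 min. Glucose readout (glucose oxidase kit). IC50 from 4-PL fit of % inhibition vs conc.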

[5] = biological target: T2, recombinant human GBA (beta-glucocerebrosidase) (Homo sapiens, UniProt P04062); test: Beta-glucocerebrosidase (GBA, glucosylceramidase) assay (4-methylumbelliferyl-beta-D-pyranoside substrate, fluorescence)
T2 sequence (P04062 40-536): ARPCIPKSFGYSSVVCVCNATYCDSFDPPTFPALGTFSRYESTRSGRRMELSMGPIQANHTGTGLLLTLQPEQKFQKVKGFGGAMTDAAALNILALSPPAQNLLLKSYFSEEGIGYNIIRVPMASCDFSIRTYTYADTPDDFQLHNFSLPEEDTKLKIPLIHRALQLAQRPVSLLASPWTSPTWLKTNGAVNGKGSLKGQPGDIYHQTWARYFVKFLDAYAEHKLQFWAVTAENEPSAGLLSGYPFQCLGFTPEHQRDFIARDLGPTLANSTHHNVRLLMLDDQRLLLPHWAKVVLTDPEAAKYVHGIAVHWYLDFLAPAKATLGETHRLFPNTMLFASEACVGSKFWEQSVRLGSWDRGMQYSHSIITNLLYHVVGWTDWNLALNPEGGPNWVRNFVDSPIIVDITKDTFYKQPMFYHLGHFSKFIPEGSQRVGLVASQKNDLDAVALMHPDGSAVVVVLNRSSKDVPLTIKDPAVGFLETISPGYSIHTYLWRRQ
Method in brief: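 Recombinant human GBA preincubated with compound dilutions 60 min at 37 °C, then 4-methylumbelliferyl-beta-D-pyranoside added for 60 min at 37 °C. Stopped at pH 10 (glycine/NaOH); fluorescence ex 365/em 440 nm. IC50 from 4-PL fit of inhibition relative to untreated enzyme.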

Chain of rat sucrase (partially purified alpha-glucosidase from intestinal rat powder) (P23739 whole entry): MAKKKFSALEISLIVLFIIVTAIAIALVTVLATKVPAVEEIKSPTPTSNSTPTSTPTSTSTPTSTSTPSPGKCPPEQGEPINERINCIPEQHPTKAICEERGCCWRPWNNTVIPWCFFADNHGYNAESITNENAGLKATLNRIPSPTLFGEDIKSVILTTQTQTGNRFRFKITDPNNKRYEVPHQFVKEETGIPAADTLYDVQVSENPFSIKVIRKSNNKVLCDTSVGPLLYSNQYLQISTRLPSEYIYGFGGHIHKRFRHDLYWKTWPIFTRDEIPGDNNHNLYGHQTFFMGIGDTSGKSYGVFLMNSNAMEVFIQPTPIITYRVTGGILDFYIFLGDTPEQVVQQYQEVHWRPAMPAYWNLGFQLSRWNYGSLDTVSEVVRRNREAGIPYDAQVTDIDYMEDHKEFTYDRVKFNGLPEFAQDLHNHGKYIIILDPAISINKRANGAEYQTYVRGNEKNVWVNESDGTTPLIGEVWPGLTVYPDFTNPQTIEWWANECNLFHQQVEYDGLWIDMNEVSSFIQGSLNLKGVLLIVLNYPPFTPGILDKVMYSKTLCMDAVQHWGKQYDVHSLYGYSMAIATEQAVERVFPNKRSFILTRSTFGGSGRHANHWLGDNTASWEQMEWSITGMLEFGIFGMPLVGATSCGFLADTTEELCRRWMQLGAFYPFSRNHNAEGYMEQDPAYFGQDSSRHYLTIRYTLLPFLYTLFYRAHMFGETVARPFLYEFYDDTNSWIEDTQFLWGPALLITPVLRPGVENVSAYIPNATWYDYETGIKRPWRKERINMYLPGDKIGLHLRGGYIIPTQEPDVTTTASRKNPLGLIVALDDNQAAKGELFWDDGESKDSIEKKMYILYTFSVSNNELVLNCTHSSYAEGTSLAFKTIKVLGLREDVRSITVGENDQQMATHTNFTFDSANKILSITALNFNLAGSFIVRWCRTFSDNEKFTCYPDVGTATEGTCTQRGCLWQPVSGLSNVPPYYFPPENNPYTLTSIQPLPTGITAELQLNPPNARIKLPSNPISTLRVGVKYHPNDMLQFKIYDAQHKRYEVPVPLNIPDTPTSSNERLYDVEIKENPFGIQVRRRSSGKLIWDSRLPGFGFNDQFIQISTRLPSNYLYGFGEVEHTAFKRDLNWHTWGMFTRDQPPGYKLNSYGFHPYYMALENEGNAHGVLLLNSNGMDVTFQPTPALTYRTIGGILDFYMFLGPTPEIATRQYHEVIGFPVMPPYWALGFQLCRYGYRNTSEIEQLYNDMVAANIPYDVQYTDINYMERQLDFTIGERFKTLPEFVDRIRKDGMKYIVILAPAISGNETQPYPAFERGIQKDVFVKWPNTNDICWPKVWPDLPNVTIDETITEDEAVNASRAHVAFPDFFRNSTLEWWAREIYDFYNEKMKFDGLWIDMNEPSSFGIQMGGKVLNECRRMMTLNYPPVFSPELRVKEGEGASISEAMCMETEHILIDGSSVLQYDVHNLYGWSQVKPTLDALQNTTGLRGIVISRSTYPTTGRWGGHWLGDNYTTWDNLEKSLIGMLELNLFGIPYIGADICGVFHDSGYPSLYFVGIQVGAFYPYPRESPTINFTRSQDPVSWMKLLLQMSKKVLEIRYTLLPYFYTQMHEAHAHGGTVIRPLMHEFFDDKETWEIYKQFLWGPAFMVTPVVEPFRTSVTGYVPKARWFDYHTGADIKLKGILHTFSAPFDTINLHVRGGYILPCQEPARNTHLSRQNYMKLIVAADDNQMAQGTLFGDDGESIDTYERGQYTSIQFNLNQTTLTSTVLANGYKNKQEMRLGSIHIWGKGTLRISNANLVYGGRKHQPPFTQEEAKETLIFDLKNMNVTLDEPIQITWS
T1 sequence (O08795 15-521): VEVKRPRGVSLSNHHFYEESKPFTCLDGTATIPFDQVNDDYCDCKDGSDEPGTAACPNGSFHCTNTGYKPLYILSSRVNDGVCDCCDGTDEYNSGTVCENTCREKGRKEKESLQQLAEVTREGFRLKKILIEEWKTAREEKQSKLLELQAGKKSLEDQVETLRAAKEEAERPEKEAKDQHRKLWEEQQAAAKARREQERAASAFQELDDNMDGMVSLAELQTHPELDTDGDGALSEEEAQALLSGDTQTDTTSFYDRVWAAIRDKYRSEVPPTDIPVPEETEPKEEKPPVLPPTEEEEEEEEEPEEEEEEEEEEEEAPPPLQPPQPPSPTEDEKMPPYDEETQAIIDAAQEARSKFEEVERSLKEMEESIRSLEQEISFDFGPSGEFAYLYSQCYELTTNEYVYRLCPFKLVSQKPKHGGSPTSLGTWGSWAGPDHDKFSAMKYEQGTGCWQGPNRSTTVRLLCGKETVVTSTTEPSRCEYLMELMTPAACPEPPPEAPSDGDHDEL
T1 sequence (Q8BHN3 33-944): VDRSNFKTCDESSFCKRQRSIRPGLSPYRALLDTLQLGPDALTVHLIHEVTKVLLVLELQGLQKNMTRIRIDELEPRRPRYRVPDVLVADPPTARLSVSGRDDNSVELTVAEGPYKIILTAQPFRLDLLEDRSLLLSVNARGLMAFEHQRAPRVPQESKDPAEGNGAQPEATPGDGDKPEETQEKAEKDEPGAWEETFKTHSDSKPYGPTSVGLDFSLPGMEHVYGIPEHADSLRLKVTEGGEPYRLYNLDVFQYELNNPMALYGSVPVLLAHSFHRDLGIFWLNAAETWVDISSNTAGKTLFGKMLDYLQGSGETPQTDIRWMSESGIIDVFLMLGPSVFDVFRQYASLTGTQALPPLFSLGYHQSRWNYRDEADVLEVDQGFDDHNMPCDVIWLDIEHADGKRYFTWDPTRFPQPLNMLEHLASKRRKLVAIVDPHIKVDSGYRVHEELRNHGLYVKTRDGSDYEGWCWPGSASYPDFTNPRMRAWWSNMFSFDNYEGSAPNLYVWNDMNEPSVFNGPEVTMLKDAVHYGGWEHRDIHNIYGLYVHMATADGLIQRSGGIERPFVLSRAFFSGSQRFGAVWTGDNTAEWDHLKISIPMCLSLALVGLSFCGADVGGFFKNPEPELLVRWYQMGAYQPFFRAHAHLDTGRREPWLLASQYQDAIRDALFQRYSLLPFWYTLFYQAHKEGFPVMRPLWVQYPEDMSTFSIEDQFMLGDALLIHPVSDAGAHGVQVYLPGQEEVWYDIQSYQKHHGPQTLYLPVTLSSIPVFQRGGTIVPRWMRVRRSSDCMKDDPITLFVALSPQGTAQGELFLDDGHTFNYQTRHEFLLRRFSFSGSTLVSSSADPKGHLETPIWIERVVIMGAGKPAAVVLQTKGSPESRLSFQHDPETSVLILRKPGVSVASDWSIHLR

SMILES | IC50 [1] [nM] | IC50 [2] [nM] | IC50 [3] [nM] | IC50 [4] [nM] | IC50 [5] [nM]
OC[C@@H]1[C@@H](O)[C@H](O)[C@@H](O)CN1CCCCCCNc1ccc(-c2ncccn2)cc1Cl [Compound 1228, (2R,3R,4R,5S)-1-(6-{[2-chloro-4-(pyrimidin-2-yl)phenyl]amino}hexyl)-2-(hydroxymethyl)piperidine-3,4,5-triol] | 68 | 61 | 11 | 1 | 838
N#Cc1ccc(NCCCCCCN2C[C@H](O)[C@@H](O)[C@H](O)[C@H]2CO)c([N+](=O)[O-])c1 [Compound 1304, 3-nitro-4-({6-[(2R,3R,4R,5S)-3,4,5-trihydroxy-2-(hydroxymethyl)piperidin-1-yl]hexyl}amino)benzonitrile] | 43 | 60 | 22 | 17 | 43
COc1cc(NCCCCCCN2C[C@H](O)[C@@H](O)[C@H](O)[C@H]2CO)cc(-c2ncccn2)c1 [Compound 1217, (2R,3R,4R,5S)-2-(hydroxymethyl)-1-(6-{[3-methoxy-5-(pyrimidin-2-yl)phenyl]amino}hexyl)piperidine-3,4,5-triol] | 10 | 225 | 11 | 11 | 981
Cc1cc(NCc2cccc(CN3C[C@H](O)[C@@H](O)[C@H](O)[C@H]3CO)c2)cc(N2CCOCC2)c1 [Compound 1031, (2R,3R,4R,5S)-2-(hydroxymethyl)-1-{[3-({[3-methyl-5-(morpholin-4-yl)phenyl]amino}methyl)phenyl]methyl}piperidine-3,4,5-triol] | 5220 | 288 | 10700 | 174 | > 100000
Cc1cc(NCc2ccc(CN3C[C@H](O)[C@@H](O)[C@H](O)[C@H]3CO)cc2)cc(-c2ncco2)c1 [Compound 1315, (2R,3R,4R,5S)-2-(hydroxymethyl)-1-{[4-({[3-methyl-5-(1,3-oxazol-2-yl)phenyl]amino}methyl)phenyl]methyl}piperidine-3,4,5-triol] | 440 | 44 | 907 | 9 | > 100000
[N-]=[N+]=Nc1ccc(NCCN(CCC(N)=O)CCN2C[C@H](O)[C@@H](O)[C@H](O)[C@H]2CO)c([N+](=O)[O-])c1 [Compound 1235] | 37800 | 8650 | 530 | 7160 | 11400
[N-]=[N+]=Nc1ccc(NCCc2ccccc2CCN2C[C@H](O)[C@@H](O)[C@H](O)[C@H]2CO)c([N+](=O)[O-])c1 [Compound 1249] | 1920 | 1870 | 162 | 3490 | 320
COc1ccc(CCCCCN2C[C@H](O)[C@@H](O)[C@H](O)[C@H]2CO)cc1 [Compound 1310, (2R,3R,4R,5S)-2-(hydroxymethyl)-1-[5-(4-methoxyphenyl)pentyl]piperidine-3,4,5-triol] | 1190 | 371 | 78 | < 10 | 16900
N#Cc1ccc(F)cc1NCCCCCCN1C[C@H](O)[C@@H](O)[C@H](O)[C@H]1CO [Compound 1251, 4-fluoro-2-({6-[(2R,3R,4R,5S)-3,4,5-trihydroxy-2-(hydroxymethyl)piperidin-1-yl]hexyl}amino)benzonitrile] | 41 | 38 | 12 | 4 | 1410
[N-]=[N+]=Nc1ccc(NCCCCCCN2C[C@H](O)[C@@H](O)[C@H](O)[C@H]2CO)c(C(=O)O)c1 [Compound 1297, 5-azido-2-({6-[(2R,3R,4R,5S)-3,4,5-trihydroxy-2-(hydroxymethyl)piperidin-1-yl]hexyl}amino)benzoic acid] | 452 | 800 | 97 | 169 | 3520
